Source: US20140303109A1 (priority 2010, published 2014)
Read-outs that look alike come from different tables or passages of the source.

Tests used:
[1] = Pancreas tissue pharmacokinetics after single intragastric dose; format: in vivo, mice
Procedure: The mice were randomly divided into two groups of 18 mice apiece. […] Blood and tissue samples were harvested before initiation of treatment (0 hr) and at 1, 2, 4, 6, 8, 12, 16, and 24 hrs following the intragastric administration. At each time point, two mice were euthanized and ˜200 μL blood was collected by cardiac puncture, and tissues (liver, lung, kidney, heart, pancreas, and colon) were harvested, washed free of blood with PBS, blotted dry, weighed, and stored at −80° C. until analysis. The collected blood samples were allowed to clot, centrifuged, and then the serum was separated and stored at −80° C. until analysis.
The tissue samples were homogenized in 5 volumes of ice-cold normal saline. Aliquots of serum or tissue homogenate were spiked with ethyl acetate (containing 50 ng/ml zilueton as an internal standard) as follows: 100 μL serum/500 μL ethyl acetate and 500 μL tissue homogenate/1 ml ethyl acetate. The mixtures were vortex-mixed and centrifuged at 14,000 rpm for 5 minutes. The top layer was separated and dried under a stream of nitrogen in a water bath at about 50° C. The residue was reconstituted in 100 μL of methanol/water containing 0.45% formic acid (70:30 v/v) and then centrifuged again.
The supernatant (100 μL) was injected into the HPLC equipment, and separated on a Waters Xterra MS column (2.1×50 mm, […] i.d.) With a mobile phase consisting of methanol/water containing 0.45% formic acid (70:30 v/v) at a flow rate of 0.2 ml/min. The column effluent was monitored using a Waters Quattro Micro™ triple quadrapole mass-spectrometric detector equipped with an electrospray ionization source. (Waters Corporation, Milford, Mass.). […] The internal standard zilueton was monitored in the positive mode at the transition of m/z, 237.1→160.8. […] The within-day and between-day precision and accuracies of the assay was <15%.
Serum pharmacokinetic parameters were estimated using non-compartmental analysis with WinNonlin software version 4.2 (Pharsight Corporation, Cary, N.C.). The maximum serum concentration (Cmax) and the time of occurrence for maximum concentration (Tmax) were obtained by visual inspection of the serum concentration-time curve after drug administration. The total area under the serum concentration-time curve from time zero to the last measurable time point ([…]) was calculated using the linear and logarithmic trapezoidal method for ascending and descending serum concentrations, respectively.

[2] = system: PGE2; assay: PGE2 immunoassay of conditioned medium, BxPC-3 and MIA PaCa-2; format: cell-based, human; settings: 24 h
Procedure: The conditioned medium was collected and analyzed for PGE2 concentration, according to the manufacture's protocol, using a PGE2 high sensitivity immunoassay kit purchased from R & D Systems, Minneapolis, Minn. The optical density was measured at 450 nm and the concentration of PGE2 was calculated from the standard curve.

[3] = system: AsPC-1 and MIAPaCa-2 cells; assay: Clonogenic assay, parental lines; format: cell-based, human; settings: 4 μmol/L CUR or CDF, 20 nmol/L GEM
[4] = system: human colon cancer HCT 116 cells; assay: MTT assay, HCT 116 cell growth; format: cell-based; settings: read-out: inhibition on cell proliferation
Procedure: The concentrations were 10 μM, 20 μM, and 30 μM. After aspiration of growth medium, (3-(4,5-Dimethylthiazol-2-yl)-2,5-diphenyltetrazolium bromide (MTT; 1 mg/ml) was added to the cell cultures, followed by incubation for 3 hours at 37° C. After the cells were crystallized, the MTT was removed and dimethylsulfoxide (DMSO) was added to dissolve the metabolized MTT product. The absorbance was then measured on a Wallac Victor^3 1420 Multi-label counter at 540 nm.

[5] = system: NF-κB DNA binding activity; assay: EMSA for NF-κB DNA binding activity, MIA PaCa-2; format: cell-based, human; settings: CUR 4 μM, CDF 2 μM
[6] = system: rabbit 20S proteasome; assay: Chymotrypsin-like activity of purified 20S proteasome (Suc-LLVY-AMC); format: biochemical
From the text: Purified rabbit 20S proteasome and a fluorogenic substrate Suc-LLVY-AMC for the proteasomal chymotrypsin-like activity were obtained from Calbiochem Inc. (San Diego, Calif.).

[7] = system: AsPC-1, AsPC1-GTR, MIAPaCa-2, and MIAPaCa-2-GTR cell lines; assay: BD BioCoat tumor invasion assay; format: cell-based, human; settings: 4 μmol/L
Procedure: The invasive activity of the drug resistant cell lines was tested by using a BD BioCoat Tumor Invasion Assay System (BD Biosciences, Bedford, Mass.) according to the manufacturer's protocol. […] The fluorescence was read using a TECAN Microplate Reader at 530/590 nm and photographed.

[8] = system: pancreatospheres of AsPC-1 cells; assay: Sphere formation assay; format: cell-based, human; settings: AsPC-1, varying concentrations
Procedure: A sphere formation assay was conducted for 1 week (FIG. 19A) and four weeks (FIG. 19B) to examine the effect of the treating agents on the CSC self-renewal capacity of the PC cell line AsPC-1. […] Therefore, it appears that CDF may cause pancreatospheres to be more sensitive to GEM, and as a result, CDF, or the combination of CDF/GEM, would be useful for targeted killing of CSCs.
Furthermore, pretreatment with CDF improved the outcome.

[9] = system: pancreatospheres of AsPC-1, AsPC1-GTR, MIAPaCa-2, and MIAPaCa-2-GTR cells; assay: Sphere disintegration assay; format: cell-based, human; settings: 5 days treatment of 10-day spheres
From the text: After allowing 10 days to generate the formation of pancreatospheres, the cells were subjected to the treating agent for 5 days.

[10] = system: pancreatosphere-derived tumor cells; assay: Pancreatosphere formation by pancreatosphere-derived tumor cells; format: cell-based; settings: cells harvested from pancreatosphere-derived tumors
From the text: Pancreatospheres (5,000) derived from MIAPaCa-2 cells were isolated and implanted in mice with 1:1 matrigel. […] RNA was extracted from the tumor tissue and assayed.
The animal was euthanized after 30 days because of tumor burden and photographed.

[11] = system: 5-FU+Ox-resistant cancer cells; settings: alone or with 5-FU+Ox or FOLFOX; cited from earlier work
[12] = system: VEGF; assay: AlphaLISA VEGF secretion; format: cell-based, human; settings: 72 h; MIAPaCa-E and MIAPaCa-M
From the text: The effect of CDF on another downstream transcriptional target of NF-κβ, vascular endothelial growth factor (VEGF) secretion, was studied in the three human pancreatic cell lines.

[13] = pancreas, 250 mg/kg single intragastric
[14] = female, ICR-SCID, mouse, po, pancreas, 250 mg/kg single intragastric

## COc1cc(/C=C/C(=O)CC(=O)/C=C/c2ccc(O)c(OC)c2)ccc1O [CUR, (1E,6E)-1,7-bis(4-hydroxy-3-methoxyphenyl)hepta-1,6-diene-3,5-dione, reference compound]
[1]; [13]
  AUClast: 3.46 µg·h/g
  Clast: 0.20 µg/g
  Tlast: 16.0 h
[2]; MIAPaCa-2 cells, 4 μM
  PGE2 level in conditioned medium: significant decrease in PGE2 levels
[3]
  clonogenicity: significant reduction in clonogenicity
[4]; HCT-116, 24 h
  inhibition at 10 µM: 24%
  inhibition at 20 µM: 53%
  inhibition at 30 µM: 49%
[5]
  NF-κB DNA binding activity: down-regulation of NF-κB
[6]; 10 μM
  proteasome inhibition: 70%
[6]; 1-10 μM, 2 h 37° C.
  inhibition of chymotrypsin-like activity of the proteasome: 20-70%
[7]
  inhibition of invasion: minimal inhibition on invasion

## COc1cc(/C=C/C(=O)C(=Cc2ccc(F)c(F)c2)C(=O)/C=C/c2ccc(O)c(OC)c2)ccc1O [CDF, (1E,6E)-1,7-bis(4-hydroxy-3-methoxyphenyl)hepta-1,6-diene{4(3,4 difluorobenzaldehyde)}-3,5-dione]
[8]
  2nd passage of pancreatospheres: inhibited 2nd passage of pancreatospheres in a dose-dependent manner
[1]; 250 mg/kg
  AUClast in pancreas tissue relative to CUR: 10.6 times
  Cmax in pancreas tissue relative to CUR: 4.3 times
[1]; female, ICR-SCID, mouse, pancreas / serum, oral, 250 mg/kg, at 8 h, read-out: Cmax in pancreas relative to serum
  Kp at 8 h: 44.5
[1]; [14]
  Cmax: 9350 ng/g
  Tmax: 8 h
[1]; [13]
  AUClast: 36.56 µg·h/g
  Clast: 0.04 µg/g
  Tlast: 12.0 h
[2]; BxPC-3 cells, 1 μM
  PGE2 level in conditioned medium: significant decrease in PGE2 level
[2]; MIAPaCa-2 cells, 4 μM
  PGE2 level in conditioned medium: significant decrease in PGE2 levels
[3]
  clonogenicity: significant reduction in clonogenicity
[9]
  disintegration of pancreatospheres: remarkably increased disintegration of pancreatospheres
[4]; HCT-116, 10 μM, 24 h
  inhibition at 10 µM: 24%
[4]; HCT-116, 20 μM, 24 h
  inhibition at 20 µM: 39%
[4]; HCT-116, 30 μM, 24 h
  inhibition at 30 µM: 68%
[10]
  formation of new pancreatospheres: significant inhibition in the formation of new pancreatospheres
[11]
  reducing and/or reversing chemoresistant colon cancer cells: superior to naturally-occurring CUR
[7]
  inhibition of invasion: significant inhibition of invasion
[12]
  secreted levels of VEGF: significant inhibition of secreted levels of VEGF
